Reference: US20220153732A1, “PROTEIN SECRETION INHIBITORS” (KEZAR LIFE SCIENCES, priority 2019, published 2022)
Where two headings read alike, the source gives them in different places.

How the values were obtained:
Format in all cases: cell-based
[1] = system: human multiple myeloma cell line U266B1; experiment: U266 Cell Viability Assay; settings: U-266, 48 hr, U266B1 cells, Celltiter-Glo, read-out: 48 hr U266 Viability Celltiter-Glo: Mean EC50
Outline: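 U266B1 myeloma cells treated with compound dilutions in DMSO/media for 48 h at 37 °C, 5% CO2. Viability read by CellTiter-Glo luminescence. Stereochemically undefined structures were tested as stereoisomer mixtures.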

[2] = system: HER3-ss+4aa/Gaussia Luciferase; experiment: Dox-Induced Her3-ss-Gluc Assay
Outline: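 Stable T-REx cell line carrying a doxycycline-regulated HER3-ss+4aa/Gaussia luciferase insert, plated the day before assay. Compound dilutions in DMSO/media with doxycycline added, then incubated at 37° C., 5% CO2. Stereoisomer mixtures tested where stereochemistry is not drawn.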

[3] = system: TNFα-FL/Gaussia Luciferase; experiment: Dox Induced TNFα-FL-Gluc Assay
Outline: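 A stable T-REx cell line carrying doxycycline-inducible TNFα-FL/Gaussia luciferase was plated the day before assay. Compound dilutions in DMSO/media containing doxycycline were then added and incubated at 37° C, 5% CO2.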

[4] = system: IL-2-FL/Gaussia Luciferase; experiment: Dox Induced IL2-FL-Gluc Assay
Outline: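 Stable T-REx cell line expressing doxycycline-inducible IL-2-FL/Gaussia luciferase cDNA, plated the day before assay. Compound dilutions in DMSO/media containing doxycycline added and incubated at 37° C., 5% CO2. Unspecified stereochemistry means data refer to a stereoisomer mixture.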

[5] = system: PD1-ss+10aa/Gaussia Luciferase; experiment: Dox-Induced PD1-ss-Gluc Assay
Outline: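 Stable cell line carrying PD1-ss+10aa/Gaussia luciferase cDNA under T-REx (doxycycline-inducible) control, plated the day before assay. Compound dilutions in DMSO/media containing doxycycline added and incubated at 37° C, 5% CO2. Undefined stereocentres: data refer to stereoisomer mixtures.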

[6] = system: human multiple myeloma cell line NCI-H929; experiment: H929 Cell Viability Assay; settings: 48 hr, NCI-H929 cells, Celltiter-Glo, read-out: 48 hr H929 Viability Celltiter-Glo: Mean EC50
Method: Plates were incubated at 37° C., 5% CO2 for 48 hours. After 48 hours, Celltiter-Glo® (Promega) was added to each well and luciferase signal was quantified using Tecan Infinite M1000 Pro for cell viability determination.
For chemical structures that include one or more stereoisomers, but are illustrated without indicating stereochemistry, the assay data refers to a mixture of stereoisomers.

[7] = 24 hr, doxycycline-induced, 293FRT/TO cells; read-out: 24 hr Dox Inducible Her3(ss + 4)Gluc 293FRT/TO: Mean IC50
[8] = 24 hr, doxycycline-induced, 293FRT/TO cells; read-out: 24 hr Dox Inducible TNFaFLGluc 293FRT/TO: Mean IC50
[9] = 24 hr, doxycycline-induced, 293FRT/TO cells; read-out: 24 hr Dox Inducible IL2FLGIuc 293FRT/TO: Mean IC50
[10] = 24 hr, doxycycline-induced, 293FRT/TO cells; read-out: 24 hr Dox Inducible PD1ssGluc 293FRT/TO: Mean IC50
[11] = read-out: 24 hr Dox Inducible Her3(ss + 4)Gluc 293FRT/TO: Mean IC50; 24 hr, doxycycline-induced, 293FRT/TO cells
[12] = read-out: 24 hr Dox Inducible TNFaFLGluc 293FRT/TO: Mean IC50; 24 hr, doxycycline-induced, 293FRT/TO cells
[13] = read-out: 24 hr Dox Inducible IL2FLGIuc 293FRT/TO: Mean IC50; 24 hr, doxycycline-induced, 293FRT/TO cells
[14] = read-out: 24 hr Dox Inducible PD1ssGluc 293FRT/TO: Mean IC50; 24 hr, doxycycline-induced, 293FRT/TO cells

Row | SMILES | EC50 [1] [µM] | IC50 [2, 7] [µM] | IC50 [3, 8] [µM] | IC50 [4, 9] [µM] | IC50 [5, 10] [µM] | EC50 [6] [µM] | IC50 [2, 11] [µM] | IC50 [3, 12] [µM] | IC50 [4, 13] [µM] | IC50 [5, 14] [µM]
1 | COc1ccc([C@@H]2C[C@H]2c2csc(NC(=O)c3cccn3Cc3ccncc3)n2)nc1 [Compound A311] | 6.23 | 0.51 | 3.33 | 0.874 | 0.175 | 6.02 | – | – | – | –
2 | COc1ccc([C@H]2C[C@H]2c2csc(NC(=O)c3cccn3Cc3ccncc3)n2)nc1 [Compound A312] | > 25 | 0.646 | 4.13 | 1.14 | 0.197 | > 25 | – | – | – | –
3 | O=C(Nc1nc([C@@H]2CCCN2C(=O)c2ccccc2)cs1)c1cccn1Cc1ccncc1 [Compound A313] | > 25 | 7.9 | > 25 | 6.36 | 3.86 | > 25 | – | – | – | –
4 | COc1ccc(O[C@H]2C[C@H](c3csc(NC(=O)c4cccn4Cc4ccncc4)n3)C2)nc1 [Compound A314] | 16 | 0.145 | 1.47 | 0.424 | 0.047 | 9.98 | – | – | – | –
5 | COc1ccc(N2CC(c3csc(NC(=O)c4cccn4Cc4ccncc4)n3)C2)nc1 [Compound A315] | > 25 | 0.827 | 8.03 | 1.42 | 0.253 | > 25 | – | – | – | –
6 | O=C(Nc1nc(C2CN(c3ccccc3)C2)cs1)c1cccn1Cc1ccncc1 [Compound A316] | > 25 | 0.313 | 3.17 | 0.762 | 0.117 | > 25 | – | – | – | –
7 | O=C(Nc1nc([C@H]2CCCN2c2ccccn2)cs1)c1cccn1Cc1ccncc1 [Compound A317] | > 25 | 0.064 | 0.427 | 0.057 | 0.025 | 2.54 | – | – | – | –
8 | O=C(Nc1nc([C@@H]2CCCN2c2ccccc2)cs1)c1cccn1Cc1ccncc1Cl [Compound A318] | > 25 | 0.097 | 0.817 | 0.184 | 0.049 | 6.04 | – | – | – | –
9 | O=C(Nc1nc([C@H]2CCC(=O)N2c2ccccc2)cs1)c1cccn1Cc1ccncc1 [Compound A319] | > 25 | 2.72 | 16 | 1.84 | 1.31 | > 25 | – | – | – | –
10 | O=C(Nc1nc([C@@H]2CCC(=O)N2Cc2ccccc2)cs1)c1cccn1Cc1ccncc1 [Compound A320] | > 25 | > 25 | > 25 | > 25 | 10.4 | > 25 | – | – | – | –
11 | O=C(Nc1nc([C@H]2C[C@@H](O)CN2c2ccccc2)cs1)c1cccn1Cc1ccncc1 [Compound A321] | > 25 | 0.902 | 4.17 | 0.948 | 0.215 | 9.73 | – | – | – | –
12 | CC(C)(C)[Si](O[C@@H]1C[C@H](c2csc(NC(=O)c3cccn3Cc3ccncc3)n2)N(c2ccccc2)C1)(c1ccccc1)c1ccccc1 [Compound A322] | > 25 | – | – | – | – | 0.315 | 0.009 | 0.014 | 0.009 | 0.003
13 | CC(C)(C)[Si](O[C@H]1C[C@H](c2csc(NC(=O)c3cccn3Cc3ccncc3)n2)N(c2ccccc2)C1)(c1ccccc1)c1ccccc1 [Compound A323] | > 25 | – | – | – | – | 0.118 | 0.013 | 0.011 | 0.01 | 0.007
14 | O=C(Nc1nc([C@H]2CC[C@H]2c2ccccc2)cs1)c1cccn1Cc1ccncc1 [Compound A324] | > 25 | 0.582 | 3.01 | 0.475 | 0.289 | 11.3 | – | – | – | –
15 | CO[C@@H]1C[C@H](c2csc(NC(=O)c3cccn3Cc3ccncc3)n2)N(c2ccccc2)C1 [Compound A325] | > 25 | 0.046 | 0.206 | 0.058 | 0.026 | 3.62 | – | – | – | –
